Data reported in patent publication US20020009747A1, “METHODS AND REAGENTS FOR IDENTIFYING MODULATORS OF NEURONAL APOPTOSIS” (priority 1997, published 2002).
Entries after “also recorded” stand apart in the source; their conditions may differ.

Test system: primary sympathetic neurons
Assay: NGF withdrawal assay, neuronal survival quantitated by MTT assay
Assay type: cell-based
Settings: protein expressed by recombinant adenovirus infection, NGF withdrawn
Protocol: One experimental system which can be used to assay for changes in death marker proteins in neurons undergoing cell death employs primary sympathetic neurons that are cultured for 3-5 days in nerve growth factor (NGF) to maintain their survival, after which time NGF is withdrawn to induce apoptosis. Death of the neuron occurs within 48 hours and requires transcription. […] Prior to the commitment point, the neurons can be rescued by re-supplying them with NGF; subsequent to the commitment point, the neurons can no longer be rescued, and are committed to die. As a part of the invention, we have shown that death due to NGF withdrawal in this assay is an apoptotic event (see Example V, below).
To confirm that primary sympathetic neurons die by apoptotic cell death, neurons were infected with a recombinant adenovirus expressing E1B55K, an adenoviral protein known to inhibit apoptosis by inhibiting p53. After adenovirus infection, NGF was withdrawn, and neuronal survival was then quantitated by MTT assay, as in Slack et al. supra.

Substance	neuronal survival / death after NGF withdrawal
Bcl2: a protein that can inhibit apoptosis	inhibits cell death in NGF-deprived neurons
E1B55K: adenoviral protein known to inhibit apoptosis by inhibiting p53, expressed from a recombinant adenovirus	inhibits death in NGF-deprived neurons; also recorded: rescue of sympathetic neuron apoptosis
